What was measured:
[1] = system: Staphylococcus aureus; assay: Antibacterial activity against methicillin-resistant Staphylococcus aureus infected in rabbit RBC assessed as reduction in alpha-heamolysin at 0.5 times of MIC by absorbance based analysis; assay type: functional, Erythrocyte; set-up: scale not given: the % may be the effect or the level left
[2] = system: Staphylococcus aureus; assay: Antibacterial activity against methicillin-resistant Staphylococcus aureus infected in rabbit RBC assessed as reduction in alpha-heamolysin at 1 times of MIC by absorbance based analysis; assay type: functional, Erythrocyte; set-up: scale not given: the % may be the effect or the level left
[3] = system: Staphylococcus aureus; assay: Antibacterial activity against methicillin-resistant Staphylococcus aureus infected in rabbit RBC assessed as reduction in alpha-heamolysin at 0.25 times of MIC by absorbance based analysis; assay type: functional, Erythrocyte; set-up: scale not given: the % may be the effect or the level left
[4] = system: Staphylococcus aureus; assay: Antibacterial activity against methicillin-resistant Staphylococcus aureus infected in rabbit RBC assessed as reduction in alpha-heamolysin by absorbance based analysis; assay type: functional, organism-based; conditions: Erythrocyte

## C=C[C@]1(C)C[C@@H](OC(=O)CSc2cc[n+](CCCCCCC)cc2)[C@]2(C)[C@H](C)CC[C@]3(CCC(=O)[C@H]32)[C@@H](C)[C@@H]1O.[I-]
[1]
  Activity: 34%
[2]
  Activity: 93%
[3]
  Activity: 25%
[4]
  Activity: Dose-Dependent Effect

— ChEMBL document CHEMBL5346923, “Novel pyridinium cationic pleuromutilin analogues overcoming bacterial multidrug resistance” (Eur J Med Chem, 2023)
